Data taken from patent publication US11377442B2, “Small molecule agonists and antagonists of NR2F6 activity” (ZANDER THERAPEUTICS, INC., priority 2016, dated 2022).
Read-outs that look alike come from different tables or passages of the source.

How the values were obtained:
Type in all cases: cell-based
NR2F6 = target: T1, NR2F6 (Homo sapiens, UniProt P10588); assay: NR2F6 agonist screening, Firefly signal cmpd/DMSO
T1 construct: expressed in transfected cells; also transient transfection
T1 sequence (P10588 1-404): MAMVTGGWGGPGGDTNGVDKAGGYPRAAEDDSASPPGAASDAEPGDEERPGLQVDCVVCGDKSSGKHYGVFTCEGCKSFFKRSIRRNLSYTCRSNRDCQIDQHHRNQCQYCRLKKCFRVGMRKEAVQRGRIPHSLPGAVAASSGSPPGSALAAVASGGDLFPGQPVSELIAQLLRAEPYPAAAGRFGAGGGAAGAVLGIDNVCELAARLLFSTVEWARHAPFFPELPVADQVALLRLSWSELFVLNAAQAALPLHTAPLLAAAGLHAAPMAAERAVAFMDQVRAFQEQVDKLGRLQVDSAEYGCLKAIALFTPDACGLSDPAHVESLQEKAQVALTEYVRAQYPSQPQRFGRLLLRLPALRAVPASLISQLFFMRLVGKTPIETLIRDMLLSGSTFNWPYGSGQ

ERα [1] = target: T2, ERα (Homo sapiens, UniProt P03372); assay: Counterscreening, Firefly signal with ERα transient transfection (Firefly_ERa); settings: 10 uM
T2 construct: expressed in transfected cells
T2 sequence (P03372 1-595): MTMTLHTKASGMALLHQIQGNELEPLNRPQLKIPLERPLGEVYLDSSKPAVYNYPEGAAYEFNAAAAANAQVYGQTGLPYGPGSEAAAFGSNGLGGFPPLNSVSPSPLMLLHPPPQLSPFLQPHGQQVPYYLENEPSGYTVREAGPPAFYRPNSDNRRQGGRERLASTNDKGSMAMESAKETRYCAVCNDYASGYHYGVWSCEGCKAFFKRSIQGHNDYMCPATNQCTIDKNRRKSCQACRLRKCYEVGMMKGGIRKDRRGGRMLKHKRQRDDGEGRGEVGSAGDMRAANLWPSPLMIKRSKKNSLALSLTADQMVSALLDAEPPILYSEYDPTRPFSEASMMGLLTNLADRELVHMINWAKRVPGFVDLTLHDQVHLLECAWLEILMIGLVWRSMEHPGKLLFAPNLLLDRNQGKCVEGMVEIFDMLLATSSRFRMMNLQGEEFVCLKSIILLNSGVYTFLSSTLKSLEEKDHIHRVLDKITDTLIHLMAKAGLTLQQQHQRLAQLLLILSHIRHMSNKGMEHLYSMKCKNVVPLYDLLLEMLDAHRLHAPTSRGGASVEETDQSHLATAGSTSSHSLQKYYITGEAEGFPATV
Method: The methodology for screening candidate compounds as NR2F6 agonists was as follows: For primary screening, hit criteria was ACT %>DMSO control+5*SD (DSO control) at 10 μM, or any compound with S/B>2. For rescreening, hit criteria was ACT %>DMSO control+3*SD (DSO control) in each replicate at 10 μM. For counterscreening, hit criteria was mean ACT<DMSO control+3*SD (DMSO control) with ERα transient transfection in duplicate at 10 μM.

Renilla = Renilla signal in NR2F6 agonist screening, cmpd/DMSO; settings: for fold induction at 2 µM / fold induction at 10 µM / fold induction at 40 µM: Renilla, read-out: Renilla F4, cmpd/DMSO (mean)
Renilla_ERa = assay: Renilla signal in ERα counterscreen (Renilla_ERa); settings: for fold induction at 2 µM / fold induction at 10 µM / fold induction at 40 µM: read-out: Renilla ERalpha transient, cmpd/DMSO (mean)
ERα [2] = target: T2, ERα; assay: Counterscreening, Firefly signal with ERα transient transfection (Firefly_ERa)

SMILES	Firefly F4, cmpd/DMSO (mean) (NR2F6; Table 15, 2 uM)	Firefly F4, cmpd/DMSO (mean) (NR2F6; Table 15, 10 uM)	Firefly F4, cmpd/DMSO (mean) (NR2F6; Table 15, 40 uM)	Firefly ERalpha transient, cmpd/DMSO (mean) (ERα [1]; Table 15)	fold induction at 2 µM (Renilla; Table 15, 2 uM)	fold induction at 10 µM (Renilla; Table 15, 10 uM)	fold induction at 40 µM (Renilla; Table 15, 40 uM)	fold induction at 2 µM (Renilla_ERa; Table 15, 2 uM)	fold induction at 10 µM (Renilla_ERa; Table 15, 10 uM)	fold induction at 40 µM (Renilla_ERa; Table 15, 40 uM)	Firefly ERalpha transient, cmpd/DMSO (mean) (ERα [2]; Table 15, 2 uM)	Firefly ERalpha transient, cmpd/DMSO (mean) (ERα [2]; Table 15, 40 uM)	Firefly F4, cmpd/DMSO (mean) (NR2F6; 2 uM, clone F4)	Firefly F4, cmpd/DMSO (mean) (NR2F6; 10 uM, clone F4)	Firefly F4, cmpd/DMSO (mean) (NR2F6; 40 uM, clone F4)	Firefly ERalpha transient, cmpd/DMSO (mean) (ERα [1])	Firefly ERalpha transient, cmpd/DMSO (mean) (ERα [2]; 2 uM)	Firefly ERalpha transient, cmpd/DMSO (mean) (ERα [2]; 40 uM)	also measured
CCOC(=O)c1cnc2c(C)cc(C)cc2c1NCCCO [Compound Z70]	1.1	1.0	1.0	1.1	0.8	1.3	1.3	1.1	1	1.2	0.9	1.5							
CCOC(=O)c1cnc2c(C)cc(C)cc2c1NCc1ccc(Cl)cc1 [Compound Z75]	0.9	1.2	0.8	1.9	1.1	1	0.8	1	0.9	0.7	1.1	0.9							
COc1ccc2nc(C(F)(F)F)c(C#N)c(NCCc3ccc(Cl)cc3)c2c1 [Compound Z39]													0.8	1.0	0.7	0.5	1.2	0.8	fold induction at 2 µM (Renilla; 2 uM, clone F4): 0.7; fold induction at 10 µM (Renilla; 10 uM, clone F4): 0.5; fold induction at 40 µM (Renilla; 40 uM, clone F4): 0.5; fold induction at 2 µM (Renilla_ERa; 2 uM): 1.1; fold induction at 10 µM (Renilla_ERa; 10 uM): 0.6; fold induction at 40 µM (Renilla_ERa; 40 uM): 0.6
COc1cccc(-c2noc(Cn3ncc(Cl)cc3=O)n2)c1 [Compound Z4]	1.5	1.2	0.8	1.4	1.1	1.6	1.4	1.2	1.1	0.8	1.5	0.8							
CC1CCN(c2nc(N3CCC(C)CC3)nc(N3CCn4c(cccc4=O)C3)n2)CC1 [Compound 36]													1.3	0.6	0.9	0.8	1.1	0.4	Renilla F4, cmpd/DMSO (mean) (Renilla; 2 uM, clone F4): 1.2; Renilla F4, cmpd/DMSO (mean) (Renilla; 10 uM, clone F4): 0.8; Renilla F4, cmpd/DMSO (mean) (Renilla; 40 uM, clone F4): 0.5; Renilla ERalpha transient, cmpd/DMSO (mean) (Renilla_ERa; 2 uM): 1.2; Renilla ERalpha transient, cmpd/DMSO (mean) (Renilla_ERa; 10 uM): 1.1; Renilla ERalpha transient, cmpd/DMSO (mean) (Renilla_ERa; 40 uM): 0.3
